Data: ChEMBL document CHEMBL5360625, “Design, Synthesis, and Antitumor Activity Evaluation of 2-Arylmethoxy-4-(2,2'-dihalogen-substituted biphenyl-3-ylmethoxy) Benzylamine Derivatives as Potent PD-1/PD-L1 Inhibitors” (J Med Chem, 2023)

What was measured:
[1] = biological target: Programmed cell death protein 1/Programmed cell death 1 ligand 1 (Homo sapiens, UniProt Q9NZQ7); assay: Inhibition of PD-1/PD-L1 interaction (unknown origin) incubated for 1 hr by HTRF assay; format: protein-complex assay
[2] = system: PBMC; assay: Cytotoxicity against human PBMC cells assessed as reduction in cell viability at 1 to 4 uM measured after 48 hrs by CCK-8 assay; format: toxicity, cell-based; conditions: dose 1-4 µM

Programmed cell death protein 1/Programmed cell death 1 ligand 1, sequence (Q15116 whole entry): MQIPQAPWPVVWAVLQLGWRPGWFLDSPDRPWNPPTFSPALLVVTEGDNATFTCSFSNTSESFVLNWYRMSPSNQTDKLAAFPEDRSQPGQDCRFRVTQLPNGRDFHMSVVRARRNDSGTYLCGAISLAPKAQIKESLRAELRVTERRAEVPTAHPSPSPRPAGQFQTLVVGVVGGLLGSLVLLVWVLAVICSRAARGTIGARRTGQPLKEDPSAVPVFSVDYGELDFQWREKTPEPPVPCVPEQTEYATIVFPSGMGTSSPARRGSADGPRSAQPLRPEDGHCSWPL
Programmed cell death protein 1/Programmed cell death 1 ligand 1, sequence (Q9NZQ7 whole entry): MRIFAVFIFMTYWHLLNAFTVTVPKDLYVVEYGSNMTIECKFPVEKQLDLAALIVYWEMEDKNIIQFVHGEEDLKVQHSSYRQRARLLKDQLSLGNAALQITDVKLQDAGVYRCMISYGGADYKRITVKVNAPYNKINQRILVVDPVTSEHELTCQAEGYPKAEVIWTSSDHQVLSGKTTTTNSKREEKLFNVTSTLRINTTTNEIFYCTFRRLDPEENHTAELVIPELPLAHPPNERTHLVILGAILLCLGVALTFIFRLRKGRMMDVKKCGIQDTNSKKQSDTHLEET

Row | Structure (SMILES) | IC50 [1] [µM] | Activity [2]
1 | COc1c(COc2ccc(CNCCO)c(OCc3cncc(C#N)c3)c2)cccc1-c1ccccc1F | 417 | –
2 | COc1c(COc2ccc(CNCC(=O)O)c(OCc3cccc(C#N)c3)c2)cccc1-c1ccccc1 | 5.5 | –
3 | COc1c(COc2ccc(CNCCNC(C)=O)c(OCc3ccc(C#N)cc3)c2)cccc1-c1ccccc1 | 22.7 | –
4 | COc1c(NCc2ccc(OCc3ccc(F)cc3)c(CNCCO)c2)cccc1-c1ccc2cc[nH]c2c1 | > 32 | –
5 | COc1c(COc2cc(OCc3cncc(C#N)c3)c(CNCCO)cc2Cl)cccc1-c1ccccc1F | 348 | –
6 | N#Cc1cccc(COc2cc(OCc3cccc(-c4ccccc4F)c3Cl)ccc2CN2CC(C(=O)O)C2)c1 | 33.6 | –
7 | COc1c(NCc2ccc(OCc3ccc(F)cc3)c(CNCCO)c2)cccc1-c1ccccc1 | > 32 | –
8 | COc1c(COc2ccc(CN[C@H](C(=O)O)C(C)O)c(OCc3cccc(C#N)c3)c2)cccc1-c1ccccc1 (single isomer, unassigned) | 17.3 | –
9 | COc1c(NCc2ccc(OCc3cccc(C#N)c3)c(CNCCO)c2)cccc1-c1ccc2cc[nH]c2c1 | > 32 | –
10 | COc1c(COc2ccc(CN3CCC[C@H]3C(=O)O)c(OCc3cccc(C#N)c3)c2)cccc1-c1ccccc1 | 18.9 | –
11 | N#Cc1cccc(COc2cc(OCc3cccc(-c4ccccc4F)c3F)ccc2CNCCO)c1 | 130 | –
12 | N#Cc1cncc(COc2cc(OCc3cccc(-c4ccccc4F)c3Cl)ccc2CN[C@@H](CO)C(=O)O)c1 | 7.3 | Non-Toxic
13 | COc1c(COc2ccc(CNCCNC(C)=O)c(OCc3cccnc3)c2)cccc1-c1ccccc1 | 9.4 | –
14 | COc1c(COc2ccc(CN[C@@H](CO)C(=O)O)c(OCc3cccc(C#N)c3)c2)cccc1-c1ccccc1 | 2.6 | –
15 | COc1c(NCc2ccc(OCc3cccc(C#N)c3)c(CNCCNC(C)=O)c2)cccc1-c1ccccc1 | > 32 | –
16 | COc1c(COc2ccc(OCc3cccc(C#N)c3)c(CNCCO)c2)cccc1-c1ccccc1 | > 32 | –
17 | COc1c(COc2ccc(CNCCNC(C)=O)c(OCc3cccc(C#N)c3)c2)cccc1-c1ccccc1Cl | 3.6 | –
18 | COc1c(COc2ccc(CNCCNC(C)=O)c(OCc3cccc(C#N)c3)c2)cccc1-c1ccc2ccccc2c1 | 16 | –
19 | COC(=O)c1ccc(COc2ccc(CNc3cccc(-c4ccccc4)c3OC)cc2CNCCO)cc1 | > 32 | –
20 | COc1c(COc2ccc(CNCCO)c(OCc3cncc(C#N)c3)c2)cccc1-c1ccccc1 | 0.8 | –
21 | COc1c(COc2ccc(CNCCNC(C)=O)c(OCc3ccc(F)cc3)c2)cccc1-c1ccccc1 | > 32 | –
22 | COc1c(NCc2ccc(OCc3ccc(F)cc3)c(CNCCO)c2)cccc1-c1ccc2ccccc2c1 | > 32 | –
23 | COc1c(COc2ccc(CNCCO)c(OCc3cccc(C#N)c3)c2)cccc1-c1ccccc1F | 1660 | –
24 | COc1c(COc2ccc(CNCCNC(C)=O)c(OCc3cccc(C#N)c3)c2)cccc1-c1ccccc1F | 2.4 | –
25 | COc1c(COc2ccc(CNCCNC(C)=O)c(OCc3cncc(C#N)c3)c2)cccc1-c1ccccc1 | 1.6 | –
26 | COc1c(COc2ccc(CNCCO)c(OCc3ccc(F)cc3)c2)cccc1-c1ccccc1 | 8.6 | –
27 | CC(=O)NCCNCc1ccc(OCc2cccc(-c3ccccc3F)c2C)cc1OCc1cncc(C#N)c1 | 24.3 | Non-Toxic
28 | COc1c(COc2ccc(CNCCNC(C)=O)c(OCc3cccc(C#N)c3)c2)cccc1-c1ccccc1 | 23.3 | –
29 | N#Cc1cccc(COc2cc(OCc3cccc(-c4ccccc4F)c3Cl)ccc2CN2CCC(O)C2)c1 (configuration not stated) | 19.2 | Non-Toxic
